The values below come from ChEMBL document CHEMBL4330164, “Propolis Components from Stingless Bees Collected on South Sulawesi, Indonesia, and Their Xanthine Oxidase Inhibitory Activity” (J Nat Prod, 2019).

In the data set the target is Xanthine dehydrogenase/oxidase (Bos taurus, UniProt P80457). The data set is described as follows: Inhibition of bovine milk xanthine oxidase assessed as reduction in uric acid production using xanthine as substrate after 10 mins by HPLC analysis.
Chain of Xanthine dehydrogenase/oxidase (P80457 whole entry): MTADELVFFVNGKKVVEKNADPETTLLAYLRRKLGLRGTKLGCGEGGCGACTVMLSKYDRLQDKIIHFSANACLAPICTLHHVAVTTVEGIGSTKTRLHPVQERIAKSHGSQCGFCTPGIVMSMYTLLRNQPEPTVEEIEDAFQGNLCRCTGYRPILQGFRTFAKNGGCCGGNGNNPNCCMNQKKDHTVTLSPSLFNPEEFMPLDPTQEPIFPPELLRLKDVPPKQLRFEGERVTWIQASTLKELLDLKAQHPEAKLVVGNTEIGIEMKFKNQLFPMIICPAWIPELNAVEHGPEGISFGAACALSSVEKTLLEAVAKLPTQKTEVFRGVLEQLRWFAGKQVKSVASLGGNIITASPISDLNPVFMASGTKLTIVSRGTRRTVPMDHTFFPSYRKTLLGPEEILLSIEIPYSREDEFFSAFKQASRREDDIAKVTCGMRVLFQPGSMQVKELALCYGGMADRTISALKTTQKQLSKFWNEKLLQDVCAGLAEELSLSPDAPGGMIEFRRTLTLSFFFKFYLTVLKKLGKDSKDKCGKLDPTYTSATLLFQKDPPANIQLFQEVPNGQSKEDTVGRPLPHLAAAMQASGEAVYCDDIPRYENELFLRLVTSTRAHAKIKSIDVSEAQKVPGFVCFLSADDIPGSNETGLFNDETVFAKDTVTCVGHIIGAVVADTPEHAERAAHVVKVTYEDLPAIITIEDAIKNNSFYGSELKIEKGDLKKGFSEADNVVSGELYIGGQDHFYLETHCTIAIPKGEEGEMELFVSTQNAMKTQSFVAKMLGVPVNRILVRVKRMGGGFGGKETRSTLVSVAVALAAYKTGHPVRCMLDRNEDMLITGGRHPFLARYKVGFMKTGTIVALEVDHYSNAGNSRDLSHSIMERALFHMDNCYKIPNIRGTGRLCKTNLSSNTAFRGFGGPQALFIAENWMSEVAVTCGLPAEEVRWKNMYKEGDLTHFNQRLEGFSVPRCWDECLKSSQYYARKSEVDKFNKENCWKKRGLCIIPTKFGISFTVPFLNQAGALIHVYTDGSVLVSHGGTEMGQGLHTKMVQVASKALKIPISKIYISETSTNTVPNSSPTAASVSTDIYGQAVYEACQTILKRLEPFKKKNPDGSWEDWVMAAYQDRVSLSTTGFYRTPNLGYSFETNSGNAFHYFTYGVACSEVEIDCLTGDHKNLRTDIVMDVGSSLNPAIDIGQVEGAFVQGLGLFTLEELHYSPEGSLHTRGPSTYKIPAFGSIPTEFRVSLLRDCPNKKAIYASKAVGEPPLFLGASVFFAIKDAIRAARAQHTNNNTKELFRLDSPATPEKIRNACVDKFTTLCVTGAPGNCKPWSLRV

In the case of `COc1cc([C@@H]2c3c(cc4c(c3OC)OCO4)C[C@@H]3COC[C@H]32)cc2c1OCO2`, the “inhibition (INH)” value (cattle, 10 min) was “Active”.

The term IC50 denotes the concentration at which inhibition is half-maximal. Consider `COc1cc(-c2c(O)c(=O)oc3cc(O)cc(O)c23)ccc1O`, for which the IC50 is 3.9 µM.
